According to US11739089B2, “Acetamido-phenyltetrazole derivatives and methods of using the same” (Athenex, Inc., priority 2020, dated 2023):
pEC50, pIC50: −log10 of the molar value. Where two headings read alike, the source gives them in different places.

Key:
P-glycoprotein = P-glycoprotein (Homo sapiens (Human), UniProt P08183); assay: P-glycoprotein inhibitory activity: MTT cell growth assay in P-gp overexpressing MES-SA/DX5 cells with docetaxel or paclitaxel; type: cell-based; conditions: 3 days, with 100 nM docetaxel or 200 nM paclitaxel, MTT readout
P-glycoprotein, sequence (P08183 whole entry): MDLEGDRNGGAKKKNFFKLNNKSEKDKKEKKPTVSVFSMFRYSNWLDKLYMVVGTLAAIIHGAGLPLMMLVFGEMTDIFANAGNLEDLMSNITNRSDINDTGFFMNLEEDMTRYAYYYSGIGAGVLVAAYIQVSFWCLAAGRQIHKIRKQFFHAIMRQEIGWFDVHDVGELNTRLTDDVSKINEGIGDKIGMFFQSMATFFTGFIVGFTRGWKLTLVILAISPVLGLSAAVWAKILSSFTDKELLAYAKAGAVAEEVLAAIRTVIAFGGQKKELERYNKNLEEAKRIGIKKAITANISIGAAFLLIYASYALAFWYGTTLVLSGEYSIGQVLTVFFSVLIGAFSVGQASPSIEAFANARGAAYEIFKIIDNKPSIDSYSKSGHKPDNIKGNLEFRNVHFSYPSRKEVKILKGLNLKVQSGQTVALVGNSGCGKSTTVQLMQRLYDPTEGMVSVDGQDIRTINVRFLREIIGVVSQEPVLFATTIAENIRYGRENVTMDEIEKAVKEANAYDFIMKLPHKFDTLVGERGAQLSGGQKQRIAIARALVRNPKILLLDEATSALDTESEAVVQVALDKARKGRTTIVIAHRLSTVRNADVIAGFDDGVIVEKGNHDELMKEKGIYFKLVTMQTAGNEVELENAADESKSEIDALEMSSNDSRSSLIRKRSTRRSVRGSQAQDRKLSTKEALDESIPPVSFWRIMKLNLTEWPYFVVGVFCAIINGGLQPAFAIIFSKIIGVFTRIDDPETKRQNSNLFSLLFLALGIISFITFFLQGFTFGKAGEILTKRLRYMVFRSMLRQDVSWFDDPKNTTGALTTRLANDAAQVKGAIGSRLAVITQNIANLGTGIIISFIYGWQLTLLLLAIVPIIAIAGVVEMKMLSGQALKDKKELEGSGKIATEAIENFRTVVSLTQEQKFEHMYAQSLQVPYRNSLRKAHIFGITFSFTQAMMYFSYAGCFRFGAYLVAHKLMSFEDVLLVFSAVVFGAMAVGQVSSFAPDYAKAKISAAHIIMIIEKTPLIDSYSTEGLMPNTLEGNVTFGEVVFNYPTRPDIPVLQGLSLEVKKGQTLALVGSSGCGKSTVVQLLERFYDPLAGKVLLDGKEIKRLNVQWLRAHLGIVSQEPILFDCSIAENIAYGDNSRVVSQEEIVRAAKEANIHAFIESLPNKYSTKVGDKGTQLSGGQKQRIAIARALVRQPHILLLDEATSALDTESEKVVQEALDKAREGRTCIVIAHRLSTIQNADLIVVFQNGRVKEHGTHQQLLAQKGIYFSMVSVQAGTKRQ
Experimental: P-glycoprotein inhibitory activity may be determined by an assay wherein P-glycoprotein overexpressed cell lines are treated with increasing concentrations of a compound of the present disclosure and therapeutic agent for three days, followed by an MTT assay.
Cell growth percentage may be calculated with the following equation: Cell growth percentage=(T−T0)/(C−T0)×100%, wherein T is OD of the test well exposure to Compound; C is OD of the control well without Compound treatment; and T0 is OD at time zero.
A P-glycoprotein overexpressing cell line derived from the human uterine sarcoma cell line MES-SA (i.e., MES-SA/DX5 cells (ATCC)) was seeded by stepwise exposures to increasing concentrations of doxorubicin, in a 96-well plate at 6,500 cells/100 μL media (McCoy's 5A+10% FBS) in each well. The cells were incubated overnight at 37° C. 5% CO2. Compounds were diluted in a separate 96-well plate to yield 11× of final concentration (final Compound concentrations were 0, 5, 20, 80, 320, and 1280 nM and the final docetaxel concentration was 100 nM or the final paclitaxel concentration was 200 nM). DMSO was used as a negative control and known P-glycoprotein inhibitor, encequidar methane sulfonic acid monohydrate (HM30181A), was used as a positive control. 10 μL of the 11× dilutions was added to the appropriate well, P-glycoprotein inhibition wells comprised Compound+docetaxel (or Compound+paclitaxel). The compound toxicity wells comprised 1280 nM Compound+10 μL of culture media. Treated the cells were incubated for 3 days at 37° C. 5% CO2.
To value (reflecting the starting number of cells upon Compound treatment) of 3 wells of cells was determined by performing the following steps 1-4 as described below.
1. 10 μL MTT (5 mg/mL in PBS) was added to each well and incubated for 1.5 hours at 37° C. 5% CO2.
2. Culture media was removed and 100 μL of DMSO was added to each well.
3. The plate was gently shook until all purple MTT formazan crystals were dissolved. OD540 was then measured using microplate reader.
4. Cell growth percentage was calculated with the following equation: Cell growth percentage=(T−T0)/(C−T0)×100%, wherein T is OD of the test well exposure to Compound; C is OD of the control well without Compound treatment; and T0 is OD at time zero.

CYP3A4 = CYP3A4 (Homo sapiens (Human), UniProt P08684); assay: CYP3A4 inhibitory activity: Luciferin-IPA (P450-Glo) assay with human liver microsome
CYP3A4, sequence (P08684 whole entry): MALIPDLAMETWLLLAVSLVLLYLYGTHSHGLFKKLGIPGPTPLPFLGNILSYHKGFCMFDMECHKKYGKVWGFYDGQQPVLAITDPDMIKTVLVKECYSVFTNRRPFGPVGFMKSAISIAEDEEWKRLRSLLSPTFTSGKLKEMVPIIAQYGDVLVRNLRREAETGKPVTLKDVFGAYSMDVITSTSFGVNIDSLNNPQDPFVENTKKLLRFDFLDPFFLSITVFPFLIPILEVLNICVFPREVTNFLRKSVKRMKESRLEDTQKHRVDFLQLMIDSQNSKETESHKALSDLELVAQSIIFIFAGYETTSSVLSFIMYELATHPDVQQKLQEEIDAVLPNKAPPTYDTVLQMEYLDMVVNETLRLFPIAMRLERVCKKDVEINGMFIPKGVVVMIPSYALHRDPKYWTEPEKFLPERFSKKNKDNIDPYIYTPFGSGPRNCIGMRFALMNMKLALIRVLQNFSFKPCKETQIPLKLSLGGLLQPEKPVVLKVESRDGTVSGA
Experimental: Cytochrome P450 activity may be determined by a P450-Glo™ assay (Promega) with human liver microsomes wherein the compounds of the present disclosure are dosed at different concentrations in buffer and incubated. Dose-response curve and IC50 data may be obtained and fit to a nonlinear regression model using GraphPad Prism software (v6.0).
The standard final Compound concentrations were 37, 111, 333, 1000, and 3000 nM. 12.5 μL of the Compound dilutions were transferred to a white 96-well plate. 1450 μL (enough for a whole plate) of 4× assay buffer (400 mM potassium phosphate buffer (10 mL 1M potassium phosphate buffer: 8.02 mL 1M K2HPO4+1.98 mL 1M KH2PO4 (1.4 g K2HPO4+0.27 g KH2PO4 in 10 mL H2O), 32 μM Luciferin-IPA (Promega V9002)) 580 μl of 1 M K3PO4 buffer, 870 μL H2O, 14 μL of 3 mM Luciferin-IPA, and 18 μL of human liver microsome (Sigma M0317-1VL) was made. 12.5 μL of 4× assay buffer was added to each well. For the well of blank control, 12.5 μL of 4× assay buffer without liver microsome was added. The plate was incubated at room temperature for 15 minutes. 2.75 mL NADPH buffer was made as follows: 2.42 mL H2O, 275 μL solution A and 55 μL solution B (NADPH regeneration system, Promega V9510). 25 μL of the buffer was added to each well. The plates were incubated at 37° C. for 11 minutes. 50 μL of luciferin detection reagent (Promega V9002) was added and the plates were incubated at room temperature for 5 minutes. The plate was read with a luminometer.
The dose-response curve and IC50 were obtained by fitting data to nonlinear regression model using GraphPad Prism software (v6.0).

pEC50 (P-glycoprotein) | pIC50 (CYP3A4) | pIC50 (CYP3A4; human, microsomes, 11 min) | Structure (SMILES)
< 6.00 | 6.00 to 6.30 | – | COc1cc(NC(=O)c2cc(=O)c3ccccc3o2)c(-c2nnn(-c3ccc(CCN(Cc4cccc(-n5ccnc5)c4)Cc4ccc5c(cnn5C)c4)cc3)n2)cc1OC [Compound 3, N-(2-(2-(4-(2-((3-(1H-Imidazol-1-yl)benzyl)((1-methyl-1H-indazol-5-yl)methyl)amino)ethyl)phenyl)-2H-tetrazol-5-yl)-4,5-dimethoxyphenyl)-4-oxo-4H-chromene-2-carboxamide]
< 6.00 | – | < 6.00 | COc1cc2c(cc1OC)CN(CCc1ccc(-n3nnc(-c4cc(OC)c(OC)cc4NC(=O)c4cc(=O)c5cc(-c6ccncc6)ccc5o4)n3)cc1)CC2 [Compound 19, N-(2-(2-(4-(2-(6,7-Dimethoxy-3,4-dihydroisoquinolin-2(1H)-yl)ethyl)phenyl)-2H-tetrazol-5-yl)-4,5-dimethoxyphenyl)-4-oxo-6-(pyridin-4-yl)-4H-chromene-2-carboxamide]
6.00 to 6.30 | – | < 6.00 | COc1cc2c(cc1OC)CN(CCc1ccc(-n3nnc(-c4cc(Oc5ccncc5)ccc4NC(=O)c4cc(=O)c5ccccc5o4)n3)cc1)CC2 [Compound 25, N-(2-(2-(4-(2-(6,7-Dimethoxy-3,4-dihydroisoquinolin-2(1H)-yl)ethyl)phenyl)-2H-tetrazol-5-yl)-4-(pyridin-4-yloxy)phenyl)-4-oxo-4H-chromene-2-carboxamide]
